Data as given in patent US9409037B2, “Enhanced anti-microbial PDT” (Biolitec Pharma Marketing LTD, priority 2010, dated 2016).

System: Staphylococcus aureus
Assay: Antimicrobial PDT killing of bacteria in calf serum in a flow system
Type: cell-based
Conditions: 20 μM Safranin O in 99% calf serum; 532 nm laser, fluence rate 30 mW/cm^2, continuous irradiation; three passages, flow rate 10 ml/min
Method: In a separate test a composition comprising Safranin O was added to calf serum (100% serum) solution containing Staphylococcus aureus ([…]), which is a common component of the micro flora of wounds, resulting in a final concentration of 20 μM Safranin O in 99% calf serum. Irradiation was delivered in a flow system corresponding to FIG. 3 B via a light fiber from a laser, Ceralas G2 (Biolitec AG, Germany) operating at 532 nm and using a fluence rate of 30 mW/cm^2.

## Cc1cc2nc3cc(C)c(N)cc3[n+](-c3ccccc3)c2cc1N.[Cl-] [Safranin O]
  percentage of killing of bacteria: about 99.9%
